Experimental data taken from patent publication US5466679A, “Carboranyl uridines and their use in boron neutron capture therapy” (The Ohio State University Research Foundation, priority 1994, dated 1995).
“And” between values parts separate entries of the source, which are not always exact repeats. Equal entries are not always repeated.

Experiments:
F98 glioma cells [1] = assay: Cellular uptake of boron in F98 glioma cells (16 hours incubation, DCP atomic emission spectroscopy); assay type: cell-based; conditions: for cellular uptake of boron at 16 hours: F98 glioma cells; for Boron Conc. /g, 16 hrs incubation: F98 Glioma Cells
Protocol: To illustrate the uptake and retention of the various boron-containing compounds as taught hereinabove, there were evaluated 5'-O-(o-carboran-1-ylmethyl)uridine of FIG. 1, and 3-O-(o-carboran-1-ylmethyl)-D-glucose of FIG. 2 in F98 glioma cells. The cellular uptake of boron at 16 hours for the compound of FIG. 1 was 83.8 micrograms of boron per gram of cells. The cellular uptake of boron at 16 hours for the compound of FIG. 2 was 65.2 micrograms of boron per gram of cells. […] This is an unexpected improvement in boron uptake and retention achieved by the present invention, relative to conventional Na2 B12 H11 SH.
(§1) Semiconfluent F98 glioma cells were incubated with the compound for 16 hours and after two washings with serum-free media, the cells were trypsinized, washed twice again and aliquots were analyzed for boron by Direct Current Plasma (DCP) Atomic Emission Spectroscopy. For the boron analyses there was used the following instrumentation and sample preparation for analysis:
(§2) A Spectraspan VB Direct Current Plasma-Atomic Emission Spectrometer, (Model #DCP-AES, Applied Research Laboratories, Brea, Calif.) was used for the boron determinations. This instrument combines a high resolution spectrometer with a high resolution Echelle grating and prism. The plasma source is argon gas heated to a temperature of 6000°-7000° K. The instrument settings used for analysis were: wave length 249.773 nm, argon flow 7L/min sleeve 50 psi, ceramic nebulizer 20 psi, entrance slits […], as predetermined by the manufacturer. The viewing height was […] between the arms of the "V" of the inverted "Y" configuration created by the three electrodes. The liquid uptake rate was approximately 2 mL/min. The operating power, once the plasma was established, was ^~ 40 V in the jet power supply with a 7 amp constant current output. With the operating parameters used no background correction was needed. Integration times and gain had been optimized by the manufacturer and were preset in the computer software. These particular parameters are not user alterable.
(§3) One to 2 mL of concentrated sulfuric acid, which was adequate for up to 1 g of tissue or cells, were added to 150×16 mm Pyrex culture tubes, and these were placed in a mineral oil bath, heated to 100° C. in an exhaust hood and stirred intermittently for one hour. Since no interference with the boron signal was found with the sulfuric acid-hydrogen peroxide cocktail, the amount of sulfuric acid used in digestion was determined by the ease of digestion for a particular sample, rather than by any specific ratio of sample weight to acid volume. The amount and type of tissue were critical factors for successful digestion. If the amount of tissue or cells approached 1 gram or more, there was more chance for overheating and loss of sample by bubbling. If sample size was small (<200 mg) there was more flexibility in terms of acid volume and digestion time.

F98 glioma cells [2] = assay: Persistence (retention) of boron in F98 glioma cells; assay type: cell-based
Protocol: as §1, §2, §3
The results for cellular uptake and retention (i.e. persistence studies) for certain compounds of this invention compared to the clinically-used Na2 B12 H11 SH compound are shown in the following TABLE 1.

[3] = Incubating Media […], + approximates the blank value for cells

| Substance | cellular uptake of boron at 16 hours (F98 glioma cells [1]) | Persistence Studies, 12 hrs, B/g (F98 glioma cells [2]; Incubating Media […]) [B/g] | Persistence Studies, 24 hrs, B/g (F98 glioma cells [2]; Incubating Media […]) [B/g] | Persistence Studies, 48 hrs, B/g (F98 glioma cells [2]; 48 hrs, Incubating Media […]) [B/g] | Boron Conc. /g, 16 hrs incubation (F98 glioma cells [1]; Boron Conc. in Incubating Media 13.5 µg/ml) [g⁻¹] | Persistence Studies, 12 hrs, B/g (F98 glioma cells [2]; [3]) | Persistence Studies, 24 hrs, B/g (F98 glioma cells [2]; [3]) | time to attain background levels (rapidly removed) (F98 glioma cells [2]; F98 glioma cells) [h] | Boron Conc. /g, 16 hrs incubation (F98 glioma cells [1]; Boron Conc. in Incubating Media 14.6 µg/ml) [g⁻¹] | Boron Conc. /g, 16 hrs incubation (F98 glioma cells [1]; Boron Conc. in Incubating Media 58.0 µg/ml) [g⁻¹] | Boron Conc. /g, 16 hrs incubation (F98 glioma cells [1]; Boron Conc. in Incubating Media 116.0 µg/ml) [g⁻¹] |
| --- | --- | --- | --- | --- | --- | --- | --- | --- | --- | --- | --- |
| 3-O-(o-Carborany-1-ylmethyl)-D-glucose [FIG. 2] | 65.2 micrograms of boron per gram of cells | – | – | – | – | – | – | – | – | – | – |
| 5'-O-(o-Carboran-1-ylmethyl)uridine [FIG. 1] | 83.8 micrograms of boron per gram of cells | 23.9 | 19.3 | 10.5 | 88.9 | – | – | – | – | – | – |
| sodium mercaptoundecahydro-closo-dodecaborane [Na2 B12 H11 SH] | about 2.0 micrograms of boron per gram of cells | – | – | – | – | 3.1 B/g and 2.8 B/g and 3.4 B/g | .4 B/g and .8 B/g and 1.8 B/g | 6 to 12 | 4.3 | 7.2 | 26.7 |
